Test: gradient 5% acetonitrile 3 min, to 50% in 2 min, to 85% in 15 min, held 3 min, 100 µL/min
Details: column: Zorbax Extend-C18 2.1 x 50 mm; eluents: water / acetonitrile, 0.1% formic acid
Outline: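 Retention times of pure standards were taken from adduct peaks that were selected by computer and manually inspected. Over 3 months, mixtures of ~100 molecules were run by HPLC–quadrupole time-of-flight mass spectrometry in positive and negative ionization mode. The Zorbax Extend-C18 column (2.1 × 50 mm, 1.8 μm) ran at 100 μL/min in water and acetonitrile, each containing 0.1% formic acid, with 40 μL dead volume and 900 μL dwell volume.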

RP-LC retention time [s]	SMILES
596	COC(=O)c1c(C)[nH]c(C(=O)N2CCCC(C(=O)NCCCN3CCCCC3)C2)c1C (stereo unspecified)
850	Cc1ccc(NC(=O)C2CCCN(S(=O)(=O)c3c[nH]c(C(=O)N4CCCC4)c3)C2)cc1 (stereo unspecified)
828	COc1ccccc1-c1nnc(-c2cc(S(=O)(=O)N3CCOCC3)ccc2F)o1
668	COCC(=O)N1CCCn2cc(-c3ccccc3F)nc21
863	COc1cc(NC(=O)Nc2nc(-c3nc4ccccc4s3)cs2)cc(OC)c1OC
803	CN1C(=O)c2cc(C(=O)N3CCN(c4ccccc4)CC3)nn2CC1(C)C(=O)NC1CCCCC1 (stereo unspecified)
633	COc1ccc(NC(=O)N2CCN(C3=CC4=NC(C)CN4C=N3)CC2)cc1Cl (stereo unspecified)
784	Cc1cc(S(=O)(=O)N2CCC(n3cnnc3C3CC3)CC2)ccc1Cl
683	COc1cc(C)c(S(=O)(=O)Nc2ccc(-c3cn4ccc(C)nc4n3)cc2)cc1C
648	COc1ccc(CNC(=O)Cc2csc3nc(-c4ccc(OC)c(OC)c4)cn23)cc1OC
686	C[C@@H]1C/C=C/C=C/C=C/C=C/[C@H](O[C@@H]2O[C@H](C)[C@@H](O)[C@H](N)[C@@H]2O)C[C@@H]2O[C@](O)(C[C@@H](O)C[C@H]3O[C@@H]3/C=C/C(=O)O1)C[C@H](O)[C@H]2C(=O)O
774	CN(C)c1cc(-n2cnc(C(=O)Nc3ccc4c(c3)OCO4)c2)ncn1
689	CN(C)CCNC(=O)c1ccc2c(c1)N(Cc1ccccc1)CCS2
650	CC1CCN(C(=O)Cn2c(CNC(=O)c3ccco3)nc3ccccc32)CC1
642	Cc1nn(C)c(C)c1CCN(C)C(=O)C1Cn2cccc2C(=O)N1CC(C)C (stereo unspecified)
961	O=S(=O)(c1ccc(Cl)cc1)N1CCC(c2nc(-c3cccnc3)no2)CC1
645	CCc1nc(N)n(CC(=O)NCc2ccc(Cl)cc2)c(=O)c1C
611	Cn1nc2ccc(S(=O)(=O)N3CCOCC3)cn2c1=O

RP-LC retention time [s]	SMILES
777	Cc1c(C(=O)C(=O)NCC2COc3ccccc3O2)c2ccccc2n1C (stereo unspecified)
902	CC(C)(C)N(Cc1ccc2c(c1)OCO2)C(=O)/C=C\S(=O)c1ccccc1 (stereo unspecified)
944	Cc1cc(C)n(Cc2nc(-c3ccc(NC(=O)CCc4ccccc4)cc3)oc2C)n1
1040	CCOC(=O)C1CCCN(c2cc(-n3nc(C)cc3C)ncn2)C1 (stereo unspecified)
962	Cc1ccc(-c2nc(N)n(C(=O)C3CC3)n2)cc1C
911	COC(=O)c1cc(S(=O)(=O)N2CCCC2C(=O)Nc2cc(F)ccc2F)cn1C (stereo unspecified)
633	O=C1CCN(C(=O)c2ccco2)CCCCCCN1
1020	CCC(C(=O)NCc1ccc2c(c1)OCO2)n1ccc2cc(S(=O)(=O)N3CCCCC3)ccc21 (stereo unspecified)
669	CCOc1nccnc1NC1CCN(C(=O)c2ccn(CC)n2)CC1
986	CN(C)S(=O)(=O)N(CC(=O)Nc1ccc(F)c(Cl)c1)c1ccccc1
882	O=C(NC1CCCCCC1)C1CCN(Cc2cc3ccccc3n2Cc2cccc(Cl)c2)CC1
814	c1ccc(Cn2cc(-c3noc(-c4ccccc4)n3)nn2)cc1
626	CN(C)C(=O)c1csc(S(=O)(=O)N2CCC(C(=O)NC3CC3)CC2)c1
786	CCNC(=O)CN1c2ccc(F)cc2-c2ccccc2S1(=O)=O
902	Cc1csc(-c2ccc(N3CCN(C(=O)Cc4ccc(Cl)cc4)CC3)nc2)n1
649	CCNC(=O)C(=O)NCC(c1ccc2c(c1)CCCN2C)N1CCCCC1 (stereo unspecified)
981	CN1C(=O)C2CCCCN2c2ccc(C(=O)NCCN3CCCC3)cc21 (stereo unspecified)
671	CCOc1cccc(CNC(=O)c2cn3ccc(C)cc3n2)c1

— the METLIN SMRT retention time set (Domingo-Almenara et al. 2019)
